Compared with `O=C(O)c1ccc(C#Cc2cc(C#Cc3ccc(C(=O)O)cc3)cc(C#Cc3ccc(C(=O)O)cc3)c2)cc1`, `COC(=O)c1cccc(NC(=O)C=C(c2ccc(Cl)cc2)c2ccc(Cl)cc2)c1` is lower in melting point: 218 °C for the first, 155 to 159 °C for the second.

First: O=C(c1ccc(-c2ccc(Cl)cc2)o1)C1CC1
Second: COC(=O)c1ccc(-c2cc(-c3ccc(Cl)cc3)on2)cc1
The melting point of the first is lower: 88 to 89 °C for the first, 225 to 226 °C for the second.

Compared with `CCc1cc(F)cc2c1OCC(C)(C)CC2(O)c1ccccn1` (stereo not given), `CC1(C)CCC(C)(C)c2cc3cc(-c4csc(C(=O)O)c4)ccc3cc21` is higher in melting point: 100 °C for the first, 207 to 208 °C for the second.

First: O=C(O)CCC(=O)c1cccc(S(=O)(=O)Cl)c1
Second: CC(=O)c1cc(CNS(C)(=O)=O)ccc1O
The melting point of the first is lower: 73 to 78 °C for the first, 85 to 86.5 °C for the second.

Compared with `CC(=O)OCC1OC(n2cc(Cc3ccc(C4CC4)cc3)c3c(F)cccc32)C(OC(C)=O)C(OC(C)=O)C1OC(C)=O` (stereo not given), `COc1c(C2CCN(CCCCNC(=O)c3ccc(-c4ccc(Cl)cc4)cn3)CC2)ccc2c1CCCC2` is lower in melting point: 190 to 192 °C for the first, 103 to 105 °C for the second.

First: CCCC(CCC)c1ccc(CN(C)c2ccc(-c3coc(CN(CC(=O)O)Cc4ccccc4)n3)cc2)cc1
Second: Cc1oc(-c2ccccc2)nc1COc1ccc(Cc2nc(-c3ccccc3)c(CCC(=O)O)[nH]2)cc1
The melting point of the first is lower: 129 to 131 °C for the first, 193 to 196 °C for the second.

Compared with `Cc1ccc(S(=O)(=O)N2CC=CC2)cc1`, `COc1ccc(S(=O)(=O)N2c3ccccc3CC2C(=O)NO)cc1` (stereo not given) is higher in melting point: 123 to 124 °C for the first, 142 °C for the second.

Compared with `Nc1nc(N)c2c(CCc3ccc(C(=O)N[C@@H](CCC(=O)O)C(=O)O)cc3)cnc-2[nH]1`, `CCc1nc2c(C)cc(C)nc2n1Cc1ccc(C(c2ccccc2)C(C(=O)O)C(=O)O)cc1` (stereo not given) is lower in melting point: 258 to 262 °C for the first, 137 to 142 °C for the second.

Compared with `CC(=C1SC(=O)NC1=O)c1ccc(SCCc2ccccc2)cc1`, `O=C1OC(COc2ccccc2)CN1Sc1ccc(Cl)cc1` (stereo not given) is lower in melting point: 183 to 187 °C for the first, 98 to 101 °C for the second.

First: CCC(C)C(=O)Nc1c(C(O)(C(F)(F)F)C(F)(F)F)ccc2ccccc12 (stereo not given)
Second: CCC(Cl)C(=O)Nc1c(C(=O)CC(=O)Nc2ccccn2)cccc1C(F)(F)F (stereo not given)
The melting point of the first is higher: 167 to 168 °C for the first, 137 °C for the second.

First: Oc1ccc(C2COc3cc(O)ccc3C2c2ccc(OCCN3CCCC3)cc2)cc1 (stereo not given)
Second: COc1ccc(CN2c3ccc(Cl)cc3C=C(C(=O)O)C2C(F)(F)F)cc1 (stereo not given)
The melting point of the first is lower: 112 to 116 °C for the first, 196 to 197 °C for the second.

First: C[C@H](NC(=O)C12CC3CC(CC(C3)C1)C2)C(=O)N1CCC[C@H]1C(=O)Nc1ccccc1
Second: O=C1c2ccccc2C(=O)c2c(NC(=O)C3CC3)ccc(NC(=O)C3CC3)c21
The melting point of the first is lower: 119 to 121 °C for the first, > 200 °C for the second.

First: Clc1ccc(-c2nc3n(c2-c2ccc(Cl)cc2)CCC3)cc1
Second: CS(=O)(=O)c1ccc(-c2[nH]nc(OC3CCCCC3=O)c2-c2ccc(F)cc2)cc1 (stereo not given)
The melting point of the first is higher: 189 to 192 °C for the first, 113 to 116 °C for the second.

First: Cc1cc(C(C)(C)C)c(O)c(P(=O)(c2ccccc2)C2c3ccccc3-c3ccccc32)c1 (stereo not given)
Second: O=C1c2c(OCc3ccccc3)cccc2-c2nn(CCN(CCO)Cc3ccccc3)c3ccc(Cl)c1c23
The melting point of the first is higher: 237 to 240 °C for the first, 130 to 134 °C for the second.

First: O=S(=O)(c1cc(-c2ccncc2)sc1-c1ccncc1)N1CCCC1
Second: CN1CCCc2cc(OC(=O)Nc3ccc(Br)cc3)ccc21
The melting point of the first is higher: 193 to 195 °C for the first, 155 °C for the second.

First: N#Cc1cccnc1N1CCN(CNC(=O)c2ccccc2)CC1
Second: CC(=O)Nc1ccc2oc([N+](=O)[O-])c(-c3ccccc3)c2c1
The melting point of the first is lower: 133 to 136 °C for the first, 204 to 207 °C for the second.

First: CCCCc1nc2ccccn2c(=O)c1-c1ccc(N[C@@H]2CCN(C(=O)OC(C)(C)C)C2)cc1C
Second: CC(C)(C)OC(=O)NC1CCN(c2c(F)cc3c(=O)c(C(=O)O)cn(C4CC4)c3c2F)C1 (stereo not given)
The melting point of the first is lower: 162 to 168 °C for the first, 239 to 240 °C for the second.

First: CCNC(=O)Nc1ccc(N(C)C)cc1C(=O)NCC1CCN(C(c2ccccc2)c2ccccc2)CC1
Second: O=C(CCCCCCn1ccc2ccc(NC(=O)OC3CCCC3)cc21)NS(=O)(=O)c1ccccc1
The melting point of the first is higher: 186 to 188 °C for the first, 74 to 76 °C for the second.

First: COC(=O)c1cccc(-c2ccccc2OC2OC(C)C(O)C(O)C2O)c1 (stereo not given)
Second: CC(=O)Oc1ccc(C(=O)O)c2ccccc12
The melting point of the first is lower: 137 to 140 °C for the first, 182 to 184 °C for the second.

First: NC(=O)C1=CC=CN(CCc2ccc(Cl)s2)C1Oc1ccc(F)cc1 (stereo not given)
Second: Nc1cccc(SC(CCc2ccc(Cl)cc2)Cn2ccnc2)c1 (stereo not given)
The melting point of the first is lower: 78 to 80 °C for the first, 89 to 91 °C for the second.

Compared with `CCCc1c2c(c(N)c3c(=O)cc(C(=O)OCC)oc13)CC(C(=O)OCC)CC2` (stereo not given), `CCCc1ccc2c(c1)C=Cc1cc(C)ccc1C2c1cn(-c2ccnc(N(C)CC(=O)O)n2)c(=O)[nH]c1=S` (stereo not given) is higher in melting point: 102 to 103 °C for the first, 145 to 150 °C for the second.

First: CCc1cn(C2CC(O)C(CSCc3ccccc3)O2)c(=O)[nH]c1=O (stereo not given)
Second: COc1ccc2nc(-c3cccc4ccccc34)[nH]c(=O)c2c1
The melting point of the first is lower: 149 to 151 °C for the first, 174 to 175 °C for the second.

First: C[C@]12CCC(=O)N[C@@H]1CCc1cc(-c3ccc([N+](=O)[O-])cn3)ccc12
Second: CC1(N2Cc3ccccc3C2=O)CCC(=O)NC1=O (stereo not given)
The melting point of the first is lower: 123 to 124 °C for the first, 231 to 232 °C for the second.

First: NC1c2ccccc2CC12C(=O)Nc1ccccc12 (stereo not given)
Second: CCOC(=O)C=Cc1csc(Nc2ccccc2)n1
The melting point of the first is higher: 195 to 197 °C for the first, 113 to 118 °C for the second.

First: CC(=O)N1CCN=C1COc1cccc(C)c1C
Second: Cc1nc2ccc(Cl)nn2c1C(=O)c1ccc(Cl)cc1F
The melting point of the first is lower: 127 to 130 °C for the first, 160 °C for the second.

First: OCC1OC(n2cnc3c(NC4Cc5ccccc5C4)ncnc32)C(O)C1O (stereo not given)
Second: CN(C)c1ncc(-c2cccc(Nc3ccc(-c4ccco4)cc3[N+](=O)[O-])c2)cn1
The melting point of the first is higher: 166 to 168 °C for the first, 160 to 161 °C for the second.

First: CCOC(=O)NC(=S)Nc1cc(Br)ccn1
Second: COc1cc2ncc(C(=O)NCc3ccc(Cl)cc3)c(O)c2cc1OC
The melting point of the first is lower: 107 to 110 °C for the first, 184 °C for the second.

Compared with `CCCOc1ccc(/C=C/c2cc(OC)c(OC)c(OC)c2)cc1`, `CCCCOc1cc(C(=O)O)cc([N+](=O)[O-])c1C(=O)c1ccc(C)cc1` is higher in melting point: 82 to 83 °C for the first, 162 to 163 °C for the second.

Compared with `O=C(Cc1cccc(O)c1)NNC(=O)c1ccc(O)c([N+](=O)[O-])c1`, `CC(C)(C)OC(=O)C[C@H](NC(=O)CNC(=O)CC1(c2ccc(C(N)=S)cc2)OCCO1)C(=O)N[C@@H](Cc1ccccc1)C(=O)OC(C)(C)C` is lower in melting point: 190 to 193 °C for the first, 96 to 98 °C for the second.

First: CNC(=O)N(CCN)c1nc(-c2ccc(F)cc2C)c2ccc(=O)n(-c3c(F)cccc3F)c2n1
Second: CCCCc1nn(-c2cc(NC(=O)CC)ccc2Cl)c(=O)n1Cc1ccc(-c2ccccc2S(=O)(=O)NC(=O)c2cc(Cl)ccc2Cl)cc1F
The melting point of the first is lower: 124 to 133 °C for the first, 169 to 172 °C for the second.

First: Cc1nc(N2CCN(Cc3ccc(OC(F)(F)F)cc3)C2=O)sc1C(=O)NCC1CC1
Second: Cc1ccc(Cn2ncn(-c3nc(C)c(C(=O)NCc4csc(C(C)C)n4)s3)c2=O)cc1
The melting point of the first is higher: 184 to 186 °C for the first, 151 to 153 °C for the second.

First: O=Cc1cn(CCCCO)c2ncccc12
Second: C=CCOc1ccc(CCNC(=O)C(F)(F)F)cc1S(=O)(=O)N=CN(C)C
The melting point of the first is lower: 90 °C for the first, 92 to 93 °C for the second.

Molecule `NS(=O)(=O)c1cc2ccc(OCC3CO3)cc2s1` (stereo not given) has a melting point of 148 to 149 °C.

Source: a melting point compilation (Tetko et al.; mined from patent text by program, amines drawn as free bases though some values may be those of a salt)
